Key:
[1] = molecular target: IMPα1 (human IMPα1ΔIBB) (Homo sapiens, UniProt P52292); test: Fluorescence polarization assay, FITC-NLS peptide vs importin α1ΔIBB
[2] = molecular target: T1, IMPα3 (human IMPα3ΔIBB) (Homo sapiens, UniProt O00629); test: Fluorescence polarization assay, FITC-NLS peptide vs importin α3ΔIBB
T1 sequence (O00629 64-521 limits assumed): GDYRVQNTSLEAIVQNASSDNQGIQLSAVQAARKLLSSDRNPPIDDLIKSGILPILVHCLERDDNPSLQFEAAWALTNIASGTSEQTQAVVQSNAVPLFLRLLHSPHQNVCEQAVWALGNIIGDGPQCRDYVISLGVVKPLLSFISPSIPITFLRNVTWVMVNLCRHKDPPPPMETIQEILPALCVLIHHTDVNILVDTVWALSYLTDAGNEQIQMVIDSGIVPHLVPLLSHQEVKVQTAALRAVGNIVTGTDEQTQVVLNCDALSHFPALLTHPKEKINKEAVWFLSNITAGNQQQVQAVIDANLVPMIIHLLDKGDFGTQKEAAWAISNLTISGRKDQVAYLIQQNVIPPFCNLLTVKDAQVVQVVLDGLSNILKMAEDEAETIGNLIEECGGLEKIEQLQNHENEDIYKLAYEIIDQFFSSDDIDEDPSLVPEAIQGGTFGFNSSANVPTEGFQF

Work on `CC[C@H](C)[C@H](NC(=O)[C@H](CCCNC(=N)N)NC(=O)[C@H](CCCNC(=N)N)NC(=O)[C@H](CCCNC(=N)N)NC(=O)[C@H](CCCCN)NC(=O)[C@H](CCCCN)NC(=O)[C@@H](NC(=O)[C@H](CCC(=O)O)NC(=O)CCCCCNC(=S)Nc1ccc2c(c1)C(=O)OC21c2ccc(O)cc2Oc2cc(O)ccc21)[C@@H](C)O)C(=O)N[C@@H](CC(C)C)C(=O)N[C@@H](CCC(=O)O)C(N)=O` [HaHV1 UL36h NLS] yielded a Kd [1] of 226 nM and a Kd [2] of 193 nM.

Source: publication PMC12474298 (Viruses, 2025)
